Experiments:
[1] = system: Pat-7 human ovarian carcinoma; assay: In vivo antitumor testing, Pat-7 xenograft; set-up: species or system nude mice
Description: (§1) In Vivo Antitumor Testing: The following human tumors were used: ovarian carcinoma A2780, A2780Tax and Pat-7 (established from an ovarian tumor biopsy from a patient who had developed resistance to paclitaxel); HCT116, HCT116/VM46 and LS174T colon carcinomas, Pat-21 breast carcinoma, and Pat-26 pancreatic carcinoma (from a liver metastasis biopsy). Pat-7, Pat-21 ad Pat-26 xenografts were established initially from primary tumor biopsies directly as xenotransplants grown in whole-body irradiated nude mice without any intervening in vitro cell culturing steps. The innately paclitaxel-insensitive murine fibrosarcoma M5076 was also employed. The human tumor xenografts were maintained in Balb/c nu/nu nude mice. M5076 was maintained in C57BL/6 mice. Tumors were propagated as subcutaneous transplants in the appropriate mouse strain using tumor fragments obtained from donor mice. Tumor passage occurred biweekly for murine tumors and approximately every two to eight weeks for the various human tumor lines. With regard to efficacy testing, M5076 tumors were implanted in (C57B1/6×DBA/2)F1 hybrid mice, and human tumors were implanted in nude mice. All tumor implants for efficacy testing were subcutaneous (sc).
The required number of animals needed to detect a meaningful response (6-8) were pooled at the start of the experiment and each was given a subcutaneous implant of a tumor fragment (˜50 mg) with a 13-gauge trocar. For treatment of early-stage tumors, the animals were again pooled before distribution to the various treatment and control groups. For treatment of animals with advanced-stage disease, tumors were allowed to grow to the pre-determined size window (tumors outside the range were excluded) and animals were evenly distributed to various treatment and control groups. Treatment of each animal was based on individual body weight. Treated animals were checked daily for treatment related toxicity/mortality. Each group of animals was weighed before the initiation of treatment (Wt1) and then again following the last treatment dose (Wt2).
Tumor weights (mg) were estimated from the formula: […]
The maximum tolerated dose (MTD) is defined as the dose level immediately above which excessive toxicity (i.e. more than one death) occurred. […] Activity is described at the OD.
Tumor response end-point was expressed in terms of tumor growth delay (T-C value), defined as the difference in time (days) required for the treated tumors (T) to reach a predetermined target size compared to those of the control group (C).

[2] = system: human tumor xenografts; conditions: general statement; cited from earlier work
[3] = system: clonogenic tumor cells; assay: Clonogenic cell colony-formation assay (IC90); type: cell-based; conditions: clonogenic cytotoxicity assay; read-out: concentration needed to kill 90% of clonogenic cancer cells (IC90)
Protocol: Clonogenic cell colony-formation assay: the potency required for the test compound and paclitaxel to kill clonogenic tumor cells (cells that are able to divide indefinitely to form a colony) in vitro was evaluated by a colony formation assay. The concentration needed to kill 90% of clonogenic cancer cells (IC90) was determined.

[4] = system: HCT116 and A2780 tumor cell lines; assay: Clonogenic cell colony-formation assay, paclitaxel-sensitive lines; type: cell-based, human; conditions: two sensitive tumor cell lines (HCT116 and A2780)
Protocol: (§2) The concentration needed to kill 90% of clonogenic cancer cells (IC90) was determined.

[5] = system: HCT116/VM46, A2780Tax and Pat-7 cell lines; assay: Cytotoxicity against cell lines that had developed resistance to paclitaxel (FIG. 2); type: cell-based, human
Protocol: as §2

[6] = system: tubulin isolated from calf brain; assay: Tubulin polymerization assay; type: biochemical; conditions: based on EC0.01
Protocol: Tubulin polymerization assay: the potency required for the test compound and paclitaxel to polymerize tubulin isolated from calf brain was evaluated by published techniques. The effective concentration (EC0.01) was defined as the interpolated concentration capable of inducing an initial slope of optical density (OD) of 0.01 OD/minute rate and is calculated using the formula: EC0.01=concentration/slope. EC0.01 values are expressed as the mean with standard deviation obtained from 3 different concentrations.

[7] = system: Pat-7, A2780Tax, HCT116/VM46, Pat-21 and M5076 tumors; assay: In vivo antitumor testing, paclitaxel-resistant tumors; set-up: species or system mice; conditions: all five paclitaxel-resistant tumors (four human and one murine)
Description: as §1, with “Tumor passage occurred biweekly for murine tumors and approximately every two to eight weeks for the various human tumor lines. With regard to efficacy testing, M5076 tumors were implanted in (C57B1/6×DBA/2)F1 hybrid mice, and human tumors were implanted in nude mice. All tumor implants for efficacy testing were subcutaneous (sc).” left out
(§3) The required number of animals needed to detect a meaningful response (6-8) were pooled at the start of the experiment and each was given a subcutaneous implant of a tumor fragment (˜50 mg) with a 13-gauge trocar. […] For treatment of animals with advanced-stage disease, tumors were allowed to grow to the pre-determined size window (tumors outside the range were excluded) and animals were evenly distributed to various treatment and control groups. […]

[8] = system: A2780 human ovarian carcinoma; HCT116 and LS 174T human colon carcinoma; assay: In vivo antitumor testing, paclitaxel-sensitive xenografts; set-up: species or system nude mice; conditions: three paclitaxel-sensitive human tumor xenografts
Description: as §1, with “Tumor passage occurred biweekly for murine tumors and approximately every two to eight weeks for the various human tumor lines. With regard to efficacy testing, M5076 tumors were implanted in (C57B1/6×DBA/2)F1 hybrid mice, and human tumors were implanted in nude mice. All tumor implants for efficacy testing were subcutaneous (sc).” left out
as §3

[9] = system: human tumor xenografts; assay: Antitumor activity by oral route of administration; type: in vivo, mice or rats; conditions: two different human tumor xenografts
Protocol: (§4) For administration to rodents, the subject compound was administered in either 1:9 ethanol/water, or 1:1:8 Cremophor®/ethanol/water. Final dilution for parenteral administration was made with water one hour before administration. Final dilution for oral administration was made with 0.25 M sodium phosphate buffer. Paclitaxel was dissolved in a 50/50 mixture of ethanol and Cremophor® and maintained at 4° C. Final dilution was made immediately prior to injection to prevent undesirable precipitation. Tumor cell lines HCT 116 human carcinoma and HCT116/V/M46 cells were maintained on McCoy's medium and 10% heat-inactivated fetal bovine serum. A2780 human ovarian carcinoma cells and A2780Tax cells were maintained in IMEM and 10% heat-inactivated fetal bovine serum. All other cell lines were maintained in RPM11640 medium with 10% heat-inactivated fetal bovine serum.

[10] = system: panel of tumor cell lines; assay: In vitro cytotoxicity, tetrazolium-based colorimetric assay; conditions: read-out: median cytotoxic concentration (IC50 values); 21 cell lines tested; 72 h incubation; FIG. 1
Protocol: as §4
The in vivo cytotoxicity was assessed in tumor cells by a tetrazolium-based colorimetric assay at 492 nm. The cells were seeded 24 h prior to drug addition. The reagents were added following a 72 h incubation with serially diluted test compound. Measurements were taken after a further three hours incubation. The results are expressed as median cytotoxic concentration (IC50 values).

Structure (SMILES)	LCK ([1]; IV, optimal dose and schedule, concomitantly tested, first of two experiments) [LCK]	LCK ([1]; IV, optimal dose and schedule, concomitantly tested, second of two experiments) [LCK]	activity when administered by the oral route [2]	IC90 [3] [nM]	potency in killing clonogenic cells compared with paclitaxel [4]	retention of cytotoxic potency in resistant versus sensitive lines ([5]; HCT116/VM46, A2780Tax and Pat-7 compared to the sensitive lines)	cytotoxicity compared with paclitaxel ([5]; three cell lines that had developed resistance to paclitaxel, FIG. 2)	tubulin polymerization potency relative to paclitaxel [6]	LCK ([1]; PO, every 2 days x 5, at MTD, pH 8.0 buffered vehicle, first of two experiments) [LCK]	LCK ([1]; PO, every 2 days x 5, at MTD, pH 8.0 buffered vehicle, second of two experiments) [LCK]	oral antitumor activity ([1]; PO, every 2 days x 5 schedule)	antitumor efficacy compared with paclitaxel [7]	antitumor activity compared with paclitaxel [8]	antitumor activity given orally compared with IV administration [9]	IC50 [10] [nM]
CC(=O)O[C@H]1C(=O)[C@@]2(C)[C@H]([C@H](OC(=O)c3ccccc3)[C@]3(O)C[C@H](OC(=O)[C@H](O)[C@@H](NC(=O)c4ccccc4)c4ccccc4)C(C)=C1C3(C)C)[C@]1(OC(C)=O)CO[C@@H]1C[C@@H]2O [paclitaxel, reference compound]	1.3	1.2	typically inactive	–	–	–	–	–	–	–	–	–	–	–	–
C/C(=C\c1csc(C)n1)[C@@H]1CC2O[C@]2(C)CCC[C@H](C)[C@H](O)[C@@H](C)C(=O)C(C)(C)[C@@H](O)CC(=O)N1 (relative stereo) [test compound, [1 S-[1R*,3R*(E),7R*,10S*,11R*,12R*,16S*]]-7,11-1-Dihydroxy-8,8,10,12,16-pentamethyl-3-[1-methyl-2-(2-methyl-4-thiazolyl)ethenyl]-4-aza-17-oxabicyclo[14.1.0]heptadecane-5,9-dione]	–	–	–	~7.5	similarly potent	almost completely retaining its cytotoxic potency	far better than paclitaxel	about 2.5 fold	3.1	2.5	highly active orally	more efficacious than paclitaxel	equivalent to paclitaxel	equivalent to that produced by IV drug administration	1.4 to 34.5

— patent publication US6686380B2, “Treatment of refractory tumors using epothilone derivatives” (Bristol-Myers Squibb Company, priority 2001, dated 2004)
